In paper PMC8400257, “2-Phenoxy-3-Trichloromethylquinoxalines Are Antiplasmodial Derivatives with Activity against the Apicoplast of Plasmodium falciparum” (Pharmaceuticals, 2021):
Like-named read-outs stand apart in the source and are kept apart here.

Assays:
[1] = test system: K1 chloroquine and pyrimethamine-resistant P. falciparum strain; experiment: In vitro antiplasmodial evaluation (SYBR Green I); assay type: cell-based, Plasmodium falciparum; details: for EC50: read-out: EC50 PfK1 (µM) ± SD; for SI (selectivity index): SI = CC50 HepG2/EC50 PfK1
Experimental: (§1) For all molecules, the selectivity index was calculated as following SI = CC50/EC50.
It was maintained in continuous culture, as described previously by Trager and Jensen. Cultures were maintained in fresh A+ human erythrocytes at 2.5% hematocrit in complete medium (RPMI 1640 with 25 mM HEPES, 25 mM NaHCO3, 10% of A+ human serum) at 37 °C under reduced O2 atmosphere (gas mixture 10% O2, 5% CO2, and 85% N2). Parasitemia was maintained daily between 1 and 3%. The P. falciparum drug susceptibility test was carried out by comparing quantities of DNA in treated and control cultures of parasite in human erythrocytes according to an SYBR Green I fluorescence-based method using a 96-well fluorescence plate reader. Compounds, previously dissolved in DMSO (final concentration less than 0.5% v/v), were incubated in a total assay volume of 200 μL (RPMI, 2% hematocrit and 0.4% parasitemia) for 72 h in a humidified atmosphere (10% O2 and 5% CO2) at 37 °C, in 96-well flat bottom plates. Duplicate assays were performed for each sample. After incubation, plates were frozen at […] for 24 h. Then, the frozen plates were thawed for 1 h at 37 °C. Fifteen µL of each sample were transferred to 96-well flat bottom non-sterile black plates (Greiner Bio-one, Kremsmünster, Austria), already containing 15 µL of the SYBR Green I lysis buffer (2X SYBR Green I, 20 mM Tris base pH 7.5, 20 mM EDTA, 0.008% w/v saponin, 0.08% w/v Triton X-100). […] Plates were incubated for 15 min at 37 °C and then read on a TECAN Infinite F-200 spectrophotometer with excitation and emission wavelengths at 485 and 535 nm, respectively.

[2] = In vitro cytotoxicity evaluation HepG2 (MTT); assay type: cell-based, human; details: human, CC50 HepG2 (µM) ± SD
Experimental: as §1
Triplicate assays were performed for each sample. Each plate-well was then microscopically examined for possible precipitate formation before the medium was aspirated from the wells. Next, 100 µL of MTT (3-(4,5-dimethyl-2-thiazolyl)-2,5-diphenyl -2H-tetrazolium bromide) solution (0.5 mg/mL in medium without FBS) was added to each well. […] After this time, the MTT solution was removed and DMSO (100 μL) was added to dissolve the resulting blue formazan crystals. Plates were shaken vigorously (700 rpm) for 10 min. The absorbance was measured at 570 nm with 630 nm as reference wavelength using a BIO-TEK ELx808 Absorbance Microplate Reader (LabX, Midland, ON, Canada). DMSO was used as blank and doxorubicin (purchased from Sigma Aldrich) as positive control. Cell viability was calculated as a percentage of control (cells incubated without compound). […] CC50 values to represent the mean value calculated from three independent experiments.

[3] = Plasmodium falciparum, K1, 72 h, K1 strain, 72 h incubation, three independent experiments
[4] = K1 strain, 72 h incubation, three independent experiments

| EC50 [1, 3] [µM] | melting point [°C] | EC50 [1, 4] [µM] | SMILES | EC50 ([1]; Plasmodium falciparum, K1, 72 h) [µM] | CC50 at 72 h [2] [µM] | SI (selectivity index) [1] |
| --- | --- | --- | --- | --- | --- | --- |
| – | – | – | CCN(CC)CCCC(C)Nc1ccnc2cc(Cl)ccc12 (stereo not shown) [Chloroquine, reference compound] | 0.8 | – | – |
| 6 | – | – | C[C@H]1c2cccc(O)c2C(=O)C2=C(O)[C@]3(O)C(=O)C(C(N)=O)=C(O)[C@@H](N(C)C)[C@@H]3[C@@H](O)[C@@H]21 [Doxycycline, reference compound] | – | 20 | 3.3 |
| 0.21 ± 0.05 | 127 | – | N=S(=O)(c1ccc(Oc2nc3ccccc3nc2C(Cl)(Cl)Cl)cc1)C(F)(F)F (stereo not shown) [3p, 2-Trichloromethyl-3-[4-(S-trifluoromethylsulfonimidoyl)phenoxy]quinoxaline] | – | 6.5 ± 1.4 | 31.0 |
| 0.4 ± 0.08 | 66 | – | FC(F)(F)Oc1ccc(Oc2nc3ccccc3nc2C(Cl)(Cl)Cl)cc1 [3k, 2-Trichloromethyl-3-[4-(trifluoromethoxy)phenoxy]quinoxaline] | – | 27.1 ± 4.7 | 67.8 |
| > 25 | 125 | > 16 | O=[N+]([O-])c1ccc(Oc2nc3ccccc3nc2C(F)(F)F)cc1 [3v, 2-(4-Nitrophenoxy)-3-trifluoromethylquinoxaline] | – | – | – |
| 0.32 ± 0.07 | 101 | – | Fc1cccc(Oc2nc3ccccc3nc2C(Cl)(Cl)Cl)c1 [3f, 2-(3-Fluorophenoxy)-3-trichloromethylquinoxaline] | – | 33.5 ± 6.3 | 105.0 |
| 0.003 ± 0.0012 | – | – | C[C@H]1[C@H](OC(=O)CCC(=O)O)O[C@@H]2O[C@@]3(C)CC[C@H]4[C@H](C)CC[C@@H]1[C@@]24OO3 [Artesunate, reference compound] | – | 14.7 ± 1.4 | 4900 |
| > 16 | 112 | – | O=[N+]([O-])c1ccc(Oc2nc3ccccc3nc2C(Cl)Cl)cc1 [3w, 2-Dichloromethyl-3-(4-nitrophenoxy)quinoxaline] | – | – | – |
| 0.22 ± 0.07 | 107 | – | O=S(=O)(c1ccc(Oc2nc3ccccc3nc2C(Cl)(Cl)Cl)cc1)C(F)(F)F [3o, 2-Trichloromethyl-3-[4-(trifluoromethylsulfonyl)phenoxy]quinoxaline] | – | 7.2 ± 1.4 | 32.7 |
| – | – | – | COc1cccc2c1C(=O)c1c(O)c3c(c(O)c1C2=O)C[C@@](O)(C(=O)CO)C[C@@H]3O[C@H]1C[C@H](N)[C@H](O)[C@H](C)O1 [Doxorubicin, reference compound] | – | 0.2 | – |
| 0.55 ± 0.12 | 99 | – | Clc1ccccc1Oc1nc2ccccc2nc1C(Cl)(Cl)Cl [3b, 2-(2-Chlorophenoxy)-3-trichloromethylquinoxaline] | – | 49.5 ± 10.1 | 90.0 |
| 0.34 ± 0.06 | 58 | – | Clc1cccc(Oc2nc3ccccc3nc2C(Cl)(Cl)Cl)c1 [3c] | – | 37.2 ± 8.1 | 109.4 |
| 0.6 ± 0.12 | 120 | – | Clc1ccc(Oc2nc3ccccc3nc2C(Cl)(Cl)Cl)c(Cl)c1 [3d, 2-(2,4-Dichlorophenoxy)-3-trichloromethylquinoxaline] | – | 37.7 ± 4.7 | 62.8 |
| 0.42 ± 0.09 | 56 | – | Fc1ccc(Oc2nc3ccccc3nc2C(Cl)(Cl)Cl)cc1 [3g, 2-(4-Fluorophenoxy)-3-trichloromethylquinoxaline] | – | 35.9 ± 7.5 | 85.5 |
| 0.2 ± 0.04 | 94 | – | FC(F)(F)Sc1ccc(Oc2nc3ccccc3nc2C(Cl)(Cl)Cl)cc1 [3m, 2-Trichloromethyl-3-[4-(trifluoromethylthio)phenoxy]quinoxaline] | – | 25.6 ± 4.6 | 128.0 |
| > 25 | 156 | > 16 | O=[N+]([O-])c1ccc(Oc2cnc3ccccc3n2)cc1 [3u, 2-(4-Nitrophenoxy)quinoxaline] | – | – | – |
